Patent US9125947B2, “Phenylethanoic acid, phenylpropanoic acid and phenylpropenoic acid conjugates and prodrugs of hydrocodone, method of making and use thereof” (KemPharm, Inc., priority 2009, dated 2015)

Legend:
[1] = Intranasal PK in rats, Ibu-HC vs Adipate-HC (Example 3); settings: equivalent to 2 mg/kg freebase hydrocodone
[2] = Chemical stability: hydrolysis to hydrocodone in 1 N hydrochloric acid; settings: 1 hour; for initial amount of conjugate hydrolyzed, 1N HCl ambient: ambient temperature (~20° C.); for initial amount of conjugate hydrolyzed, 1N HCl 100° C.: oil bath at 100° C.
[3] = Water solubility / ability to be dosed in solution (Example 4)
[4] = Chemical stability: hydrolysis in 5% NaHCO3; assay type: physicochemical; settings: 5% NaHCO3, one hour; for initial amount of conjugate hydrolyzed, 5% NaHCO3 ambient: ambient temperature (~20° C.); for initial amount of conjugate hydrolyzed, 5% NaHCO3 100° C.: oil bath at 100° C.
[5] = Intranasal PK in rats, Ibu-HC vs Hydrocodone BT (Example 6); assay type: in vivo
From the text: The intranasal profiles of Ibu-HC were compared to the unconjugated drug Hydrocodone•BT by administering to rats intranasally and measuring the plasma concentration of hydrocodone or hydromorphone over time.

[6] = Oral PK in rats, Ibu-HC and Cinnamate-HC vs Hydrocodone BT (Example 5)

Row | SMILES | initial amount of conjugate hydrolyzed, 1N HCl ambient [2] [%] | initial amount of conjugate hydrolyzed, 1N HCl 100° C. [2] [%] | water solubility [3] | initial amount of conjugate hydrolyzed, 5% NaHCO3 ambient [4] [%] | initial amount of conjugate hydrolyzed, 5% NaHCO3 100° C. [4] [%] | further results
1 | COc1ccc2c3c1OC1C(OC(=O)CCCCC(=O)O)=CC[C@H]4[C@@H](C2)N(C)CC[C@]314 (stereo partly shown) [Adipate-HC, reference compound] | 13 | 100 | water-soluble | 3 | 100 | hydromorphone AUC, higher than Ibu-HC ([1]; hydromorphone in plasma, relative to Ibu-HC): approximately 940%; hydrocodone AUC, higher than Ibu-HC ([1]; released hydrocodone in plasma, relative to Ibu-HC): approximately 170%
2 | COc1ccc2c3c1OC1C(OC(=O)COCC(=O)O)=CC[C@H]4[C@@H](C2)N(C)CC[C@]314 (stereo partly shown) [Diglycolate-HC] |  |  | water-soluble |  |  | 
3 | COc1ccc2c3c1O[C@H]1C(=O)CC[C@H]4[C@@H](C2)N(C)CC[C@]314.O=C(O)C(O)C(O)C(=O)O [Hydrocodone•BT, hydrocodone bitartrate, reference compound] |  |  |  |  |  | hydrocodone AUC, higher than Ibu-HC ([5]; hydrocodone in plasma, relative to Ibu-HC): approximately 300%
4 | COc1ccc2c3c1OC1C(OC(=O)C(C)c4ccc(CC(C)C)cc4)=CCC4C(C2)N(C)CCC314 (stereo not shown) [Ibu-HC, ibuprofen-hydrocodone] |  |  | very low water solubility | 0 | 22 | hydrocodone plasma concentrations compared with Adipate-HC [1]: significantly lower; plasma concentration of hydromorphone compared with Adipate-HC [1]: very low; hydrocodone and hydromorphone plasma concentrations compared with unconjugated Hydrocodone•BT ([6]; equivalent to 2 mg/kg freebase hydrocodone): similar; AUC and Cmax values (hydrocodone and hydromorphone) compared with Hydrocodone•BT ([6]; same dose based on hydrocodone freebase (2 mg/kg)): within the range of bioequivalence; hydrocodone plasma concentrations compared with Hydrocodone•BT [5]: significantly lower; plasma concentration of hydromorphone compared with Hydrocodone•BT [5]: very low
5 | COc1ccc2cc(C(C)C(=O)OC3=CCC4C5Cc6ccc(OC)c7c6C4(CCN5C)C3O7)ccc2c1 (stereo not shown) [Naproxen-HC, naproxen-hydrocodone] | 0 | 33 |  | 0 | 8 | 
